Results: ChEMBL document CHEMBL4033705, “Screening for bioactive natural products from a 67-compound library of Glycyrrhiza inflata” (Bioorg Med Chem, 2017)

How the values were obtained:
MCF7 [1] = assay: Cytotoxicity against human MCF7 cells assessed as reduction in cell viability after 24 hrs by MTS assay; assay type: functional, cell-based; details: MCF7, 24 h
[2] = target: T1, Tyrosine-protein phosphatase non-receptor type 1 (Homo sapiens) (UniProt P18031); assay: Inhibition of recombinant human PTP1B using p-nitrophenyl phosphate as substrate at 10 uM after 30 mins relative to control
T1 sequence (whole entry): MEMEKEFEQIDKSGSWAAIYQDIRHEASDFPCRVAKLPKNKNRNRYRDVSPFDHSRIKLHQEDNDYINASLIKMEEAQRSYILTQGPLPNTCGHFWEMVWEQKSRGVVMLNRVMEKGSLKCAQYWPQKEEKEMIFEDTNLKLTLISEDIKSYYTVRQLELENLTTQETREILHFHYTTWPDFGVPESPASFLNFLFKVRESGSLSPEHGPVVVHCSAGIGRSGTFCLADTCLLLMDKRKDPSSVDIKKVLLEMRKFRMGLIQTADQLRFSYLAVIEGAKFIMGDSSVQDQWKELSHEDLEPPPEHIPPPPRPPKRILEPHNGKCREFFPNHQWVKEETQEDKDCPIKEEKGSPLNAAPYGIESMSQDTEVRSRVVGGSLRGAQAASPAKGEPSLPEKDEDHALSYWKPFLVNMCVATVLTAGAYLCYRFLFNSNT

MCF7 [3] = assay: Growth inhibition of human MCF7 cells at 10 uM after 24 hrs by MTS assay relative to control; assay type: functional; details: MCF7, 24 h, read-out: GI
[4] = (§1) Growth inhibition of human LO2 cells at 10 uM after 24 hrs by MTS assay relative to control; assay type: cell-based, L02; details: LO2 cells, read-out: GI
[5] = target: Mushroom tyrosinase (Agaricus bisporus) (UniProt O42713+Q00024+C7FF04+C7FF05); assay: Inhibition of mushroom tyrosinase at 10 uM using L-tyrosine as substrate incubated for 15 mins followed by substrate addition relative to control
Homo sapiens = species: Homo sapiens; assay: Inhibition of LPS-induced NF-kappaB transcription (unknown origin) expressed in human SW480 cells at 10 uM by luciferase reporter gene assay; assay type: cell-based
HepG2 [6] = assay: Growth inhibition of human HepG2 cells at 10 uM after 24 hrs by MTS assay relative to control; assay type: functional; details: HepG2, 24 h, read-out: GI
[7] = target: T2, Tyrosine-protein phosphatase non-receptor type 1 (Homo sapiens, UniProt P18031); assay: Inhibition of recombinant human PTP1B using p-nitrophenyl phosphate as substrate after 30 mins
T2 sequence (P18031 whole entry): T1 sequence (whole entry)

HepG2 [8] = assay: Cytotoxicity against human HepG2 cells assessed as reduction in cell viability after 24 hrs by MTS assay; assay type: functional, cell-based; details: HepG2, 24 h
RAW264.7 [9] = assay: Antiinflammatory activity in mouse RAW264.7 cells assessed as inhibition of LPS-induced NO production at 10 uM after 24 hrs by Griess reagent based assay relative to control; assay type: functional; details: RAW264.7, 24 h
SW480 [10] = assay: Growth inhibition of human SW480 cells at 10 uM after 24 hrs by MTS assay relative to control; assay type: functional; details: SW480, 24 h, read-out: GI
SW480 [11] = assay: Cytotoxicity against human SW480 cells assessed as reduction in cell viability after 24 hrs by MTS assay; assay type: functional, cell-based; details: SW480, 24 h
[12] = (§2) Growth inhibition of human HEK293T cells at 10 uM after 24 hrs by MTS assay relative to control; assay type: cell-based, HEK-293T; details: HEK293T cells, read-out: GI
L02 = assay: as §1; assay type: cell-based; details: l02, 24 h, 10 µM
HEK-293T = assay: as §2; assay type: cell-based; details: hek-293t, 24 h, 10 µM
[13] = Inhibition of LPS-induced NF-kappaB transcription (unknown origin) expressed in human SW480 cells by luciferase reporter gene assay; assay type: cell-based
RAW264.7 [14] = assay: Antiinflammatory activity in mouse RAW264.7 cells assessed as inhibition of LPS-induced NO production after 24 hrs by Griess reagent based assay; assay type: functional, cell-based; details: RAW264.7, 24 h
Mushroom tyrosinase = Mushroom tyrosinase (Agaricus bisporus, UniProt O42713+Q00024+C7FF04+C7FF05); assay: Inhibition of mushroom tyrosinase using L-tyrosine as substrate incubated for 15 mins followed by substrate addition

inhibition [2] [%]	inhibition [5] [%]	IC50 [7] [µM]	IC50 [13] [µM]	IC50 (RAW264.7 [14]) [µM]	IC50 (Mushroom tyrosinase) [µM]	Compound	IC50 (MCF7 [1]) [µM]	inhibition of growth at 10 µM (MCF7 [3]) [%]	inhibition at 24 h, 10 µM [4] [%]	inhibition (Homo sapiens) [%]	inhibition of growth at 10 µM (HepG2 [6]) [%]	IC50 (HepG2 [8]) [µM]	inhibition at 10 µM (RAW264.7 [9]) [%]	inhibition of growth at 10 µM (SW480 [10]) [%]	IC50 (SW480 [11]) [µM]	inhibition at 24 h, 10 µM [12] [%]	Activity (L02)	Activity (HEK-293T)
92	8	0.31				CC(C)=CCc1cc([C@@H]2CC(=O)c3ccc(O)c(CC=C(C)C)c3O2)ccc1O [GLABROL]	7.62	97	16	21	98	2.83	6	98	5.15	36		
92	1	1.48				CC(C)=CCc1c(O)cc2occ(-c3cc(O)c4c(c3)C=CC(C)(C)O4)c(=O)c2c1O	7.27	92	5	14	89	3.54	0	82	7.87	11	Non-Toxic	Non-Toxic
46	5					CC(C)=CCc1cc([C@@H]2CC(=O)c3c(O)cc(O)c(CC=C(C)C)c3O2)ccc1O [LESPEDEZAFLAVANONE B]	13.1	86	12	34	24		14	81	12.5	6	Non-Toxic	Non-Toxic
48	12		6.67			C=CC(C)(C)c1cc(/C=C/C(=O)c2ccc(O)cc2)c(OC)c(O)c1O		31	5	66	22		50	36		11		
75	11		2.44	9.35		COc1c(/C=C/C(=O)c2ccc(O)c(O)c2)ccc(O)c1CC=C(C)C		21	9	80	5		85	21		28		
21	8		3.83	9.09		C=C(C)[C@H](C)c1cc(/C=C/C(=O)c2ccc(O)cc2)c(OC)cc1O [LICOCHALCONE E]		42	22	72	23		55	44		34		
34	7					CC(C)=CCc1c(O)cc2occ(-c3ccc4c(c3O)C=CC(C)(C)O4)c(=O)c2c1O	8.58	79	16	23	75	7.07	26	99	6.72	39		
98	7	0.84				CC(C)=CCc1c(O)ccc([C@H]2COc3cc(O)c(CC=C(C)C)c(O)c3C2=O)c1O		44	0	37	25		14	2		4		
94	12	0.55				CC(C)=CCc1cc(-c2cc(=O)c3c(O)c(CC=C(C)C)c(O)cc3o2)ccc1O		25	33	0	34		5	86	6.35	3		
64	8			8.78		COc1c(/C=C/C(=O)c2ccc(O)cc2)ccc(O)c1O		13	6	4	4		71 to 73	9		7		
36	90				0.8	CC1(C)C=Cc2c(O)ccc(-c3coc4cc(O)cc(O)c4c3=O)c2O1		28	24	12	22		21	15		1		
18	1		13.9			C=CC(C)(C)c1cc(/C=C/C(=O)c2ccc(O)cc2)c(OC)cc1O [LICOAGROCHACONE A]		10	16	56	14		39	7		4		
18	2			3.83		CC(C)=CCc1c(O)cc(O)c2c(=O)cc(-c3ccc(O)cc3)oc12		0		3	21		58	19				
38	98				0.1	CC1(C)C=Cc2c(ccc3c2OC[C@@H](c2ccc(O)cc2O)C3)O1 [GLABRIDIN]		0	3	0	7		7	32		2		
33	1		7.27			CC1(C)C=Cc2cc(/C=C/C(=O)c3ccc(O)cc3O)ccc2O1		14	5	78	0		23	14		7		
15	14		3.1			CC1(C)C=Cc2c(ccc(-c3cc4ccc(O)cc4o3)c2O)O1		0	4	73	5		22	31		11		
58	95				0.25	CC1(C)C=Cc2cc(-c3coc4cc(O)cc(O)c4c3=O)cc(O)c2O1		15	7	8	5		14	29		0		
90	0	0.45				CC(C)=CCc1cc(/C=C/C(=O)c2ccc(O)c(CC=C(C)C)c2O)ccc1O [KANZONOL C]	9.15	79	34	6	27		19	96	6.1	21		
